“Also recorded” adds a separate entry of the source. Where a name gives a salt, the structure may show the parent alone.
Assay: Stability of the anhydrous moxifloxacin hydrochloride to humidity and drying (XRPD, water content)
Format: physicochemical
Excerpt: The water contents of the moxifloxacin hydrochloride and of the excipients can be determined using any one of the analytical methods described in the prior art. For example, one may use of the Karl Fisher titration method as described in the European Pharmacopoeia Chapter 2.5.12 (Ph. Eur. 2.5.12) using the Metrohm 7012 KF Titrino® titrator.
The anhydrous moxifloxacin hydrochloride is exposed for several hours to a relative humidity of approximately 40%, which causes an increase in its water content. At the end of the exposure, the water content of the active ingredient is approximately 4% by weight. […] Such results illustrate the low stability of the anhydrous moxifloxacin hydrochloride in the presence of a humidity level of 40%. The conversion of the anhydrous moxifloxacin hydrochloride into a hydrate form becomes significant for a water content above 2%.

## COc1c(N2C[C@@H]3CCCN[C@@H]3C2)c(F)cc2c(=O)c(C(=O)O)cn(C3CC3)c12 [anhydrous moxifloxacin hydrochloride, 1-cyclopropyl-6-fluoro-1,4-dihydro-8-methoxy-7-[(4aS,7aS)-octahydro-6H-pyrrolo[3,4-b]pyridin-6-yl]-4-oxo-3-quinolinecarbolic acid]
  water content above which conversion of the anhydrous form into a hydrate form becomes significant: above 2%
Drying for several hours
  water content after drying of the hydrate form obtained: less than 1 % by weight
Drying for several hours, FIG. 2 curve 2
  polymorphic form by XRPD after drying of the hydrate form: reconvert the hydrate formed into an anhydrous polymorphic form; also recorded: conversion into the starting anhydrous form
Exposed for several hours to a relative humidity of approximately 40%
  water content at the end of the exposure: approximately 4 % by weight
Several hours at relative humidity of approximately 40%, FIG. 2 curve 3
  polymorphic form by XRPD after humidity exposure: has a tendency to convert into hydrate; also recorded: converted into a hydrate polymorphic form

Reference: patent US20150190388A1, “PHARMACEUTICAL COMPOSITION OF MOXIFLOXACIN HYDROCHLORIDE AND PREPARATION METHOD” (RIVOPHARM SA, priority 2012, published 2015)
